Results: the NIST ThermoML archive (doi:10.1021/je050162g)

Assay: xn = mol fraction of the nth substance listed
Settings: 101 kPa, Liquid; for viscosity: Capillary tube (Ostwald / Ubbelohde) method; for excess molar volume: Direct dilatometry; for speed of sound: Linear variable-path acoustic interferometer

C=COC(C)=O [vinyl acetate] + Cc1ccc(C)cc1
Settings | excess molar volume, 303.15 K [m3/mol] | excess molar volume, 308.15 K [m3/mol] | excess molar volume, 313.15 K [m3/mol] | speed of sound, 303.15 K [m/s] | speed of sound, 308.15 K [m/s] | speed of sound, 313.15 K [m/s] | viscosity, 303.15 K [mPa·s] | viscosity, 308.15 K [mPa·s] | viscosity, 313.15 K [mPa·s]
x2 = 0 | 0 | 0 | 0 | 1095.9 | 1072.5 | 1055.7 | 0.384 | 0.361 | 0.332
x2 = 0.0767 | -4.3e-08 | 2e-08 | 4.2e-08 | 1108.1 | 1084.9 | 1067.7 | 0.4 | 0.367 | 0.333
x2 = 0.1577 | -6.8e-08 | 3.8e-08 | 7.2e-08 | 1122.6 | 1098.2 | 1080.6 | 0.415 | 0.376 | 0.341
x2 = 0.2421 | -7.3e-08 | 5.7e-08 | 9.8e-08 | 1138.8 | 1112.3 | 1094.7 | 0.428 | 0.387 | 0.352
x2 = 0.3332 | -7.2e-08 | 7.3e-08 | 1.21e-07 | 1156.6 | 1128 | 1110.6 | 0.44 | 0.399 | 0.365
x2 = 0.43 | -6.1e-08 | 8.9e-08 | 1.41e-07 | 1175.5 | 1145.6 | 1128.6 | 0.453 | 0.414 | 0.38
x2 = 0.5319 | -5.1e-08 | 9.6e-08 | 1.48e-07 | 1195.4 | 1165.3 | 1148.8 | 0.469 | 0.432 | 0.399
x2 = 0.6371 | -2.7e-08 | 9.2e-08 | 1.4e-07 | 1215.8 | 1187.3 | 1171 | 0.489 | 0.453 | 0.422
x2 = 0.7488 | -4e-09 | 7.6e-08 | 1.13e-07 | 1237.4 | 1211.9 | 1196.4 | 0.512 | 0.478 | 0.447
x2 = 0.8654 | 6e-09 | 4.4e-08 | 7.2e-08 | 1259.7 | 1238.6 | 1224.5 | 0.538 | 0.504 | 0.475
